These results are taken from PubChem BioAssay (NCI).

Among the test systems are NCI-H226 lung; T-47D breast; A498 renal; MOLT-4 leukemia; SNB-75 CNS; LOX IMVI melanoma; SK-MEL-2 melanoma; OVCAR-3 ovarian; UO-31 renal; NCI-H522 lung; OVCAR-8 ovarian; SF-268 CNS; SR leukemia; PC-3 prostate; HOP-62 NSCLC.
Holding throughout (assay): inhibition of tumour cell growth, NCI panel, 48 h

In brackets after ≈: the same amount, converted by molar mass.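 Step 1: Grow cells in 96-well plates. Step 2: Expose to compound for 48 hours at 5 concentrations. Step 3: Interpolate endpoints linearly; if unreached, use highest concentration. At the GI50, growth is halved. TGI: total growth inhibition.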

Take `c1ccc(C2=NN2c2ccccc2)cc1`: the TGI with NCI-H226 lung, in the test with T-47D breast, in the test with A498 renal, in the test with MOLT-4 leukemia, in the test with SNB-75 CNS and in the test with LOX IMVI melanoma was greater than 100 µM each time. Further, the TGI with SK-MEL-2 melanoma, in the test with OVCAR-3 ovarian, with UO-31 renal, in the test with NCI-H522 lung, with OVCAR-8 ovarian and in the test on SF-268 CNS was greater than 100 µM each time. Moreover, the TGI with SR leukemia, in the test with PC-3 prostate and in the test with HOP-62 NSCLC was greater than 100 µM throughout.

As for `CC1(C)OCC(CO)(CO)CO1`, the TGI with NCI-H226 lung, in the test with T-47D breast, with A498 renal, with MOLT-4 leukemia, in the test on SNB-75 CNS and with LOX IMVI melanoma was greater than 100 µM in each case. Further, the TGI in the test on OVCAR-3 ovarian, with UO-31 renal, in the test with NCI-H522 lung, in the test with OVCAR-8 ovarian, in the test with SF-268 CNS and in the test with SR leukemia was greater than 100 µM in each case. The TGI in the test with PC-3 prostate was greater than 100 µM.

For `O=Cc1cn(CCCCCCCCn2cc(C=O)c3ccccc32)c2ccccc12`, the TGI was greater than 10 µM in the test on NCI-H226 lung; greater than 10 µM with T-47D breast; 3.23 µM in the test on A498 renal; greater than 10 µM in the test with MOLT-4 leukemia; greater than 10 µM in the test with SNB-75 CNS; greater than 10 µM in the test on LOX IMVI melanoma. Also, the TGI with SK-MEL-2 melanoma, in the test with OVCAR-3 ovarian, in the test on UO-31 renal, with NCI-H522 lung, with OVCAR-8 ovarian and in the test with SF-268 CNS was greater than 10 µM throughout. Moreover, the TGI in the test on SR leukemia, in the test on PC-3 prostate and in the test on HOP-62 NSCLC was greater than 10 µM throughout.

On to `O=C=C=P(c1ccccc1)(c1ccccc1)c1ccccc1`, for which the TGI in the test on NCI-H226 lung is greater than 100 µM; with MOLT-4 leukemia, greater than 100 µM; in the test on SNB-75 CNS, 83.6 µM; with LOX IMVI melanoma, greater than 100 µM; in the test with SK-MEL-2 melanoma, greater than 100 µM; with UO-31 renal, greater than 100 µM. The TGI in the test with OVCAR-8 ovarian, with SF-268 CNS and in the test on SR leukemia was greater than 100 µM in each case.

For the compound `Cc1nc2nc(C)n(CCN3CCOCC3)c(=O)c2c(-c2cccc([N+](=O)[O-])c2)c1C(=O)CCCCCCCCCCN1CCC(c2ccccc2)(c2ccccc2)CC1`, the GI50 with SK-MEL-2 melanoma was 2.55 µg/mL (≈ 3.14 µM); in the test on OVCAR-3 ovarian, 2.21 µg/mL (≈ 2.72 µM); in the test with UO-31 renal, 1.71 µg/mL (≈ 2.1 µM); in the test on SF-268 CNS, 2.26 µg/mL (≈ 2.78 µM); in the test on HOP-62 NSCLC it was 2.07 µg/mL (≈ 2.55 µM). The TGI in the test on SK-MEL-2 melanoma came to 4.76 µg/mL; in the test with OVCAR-3 ovarian it was 4.19 µg/mL; in the test on UO-31 renal, 3.52 µg/mL; in the test on SF-268 CNS it was 4.26 µg/mL; in the test on HOP-62 NSCLC, 4.06 µg/mL.
